Test results published in US8618111B2, “5-alkynyl-pyrimidines” (Boehringer Ingelheim International GmbH, priority 2010, dated 2013).

Tests used:
mTOR = mTOR (Homo sapiens (Human), UniProt P42345); assay: mTOR kinase activity assay (phosphorylation status of mTOR substrate 4E-BP1; TR-FRET); assay type: biochemical; conditions: GFP-4E-BP1 substrate, 8 μM ATP
PI3Kalpha = PI3Kalpha (Homo sapiens (Human), UniProt P42336); assay: Inhibition of PI3Kalpha-induced PIP-2 phosphorylation (filter-binding assay); assay type: biochemical; conditions: 33P-ATP
Chain of PI3Kalpha (P42336 whole entry, species assumed): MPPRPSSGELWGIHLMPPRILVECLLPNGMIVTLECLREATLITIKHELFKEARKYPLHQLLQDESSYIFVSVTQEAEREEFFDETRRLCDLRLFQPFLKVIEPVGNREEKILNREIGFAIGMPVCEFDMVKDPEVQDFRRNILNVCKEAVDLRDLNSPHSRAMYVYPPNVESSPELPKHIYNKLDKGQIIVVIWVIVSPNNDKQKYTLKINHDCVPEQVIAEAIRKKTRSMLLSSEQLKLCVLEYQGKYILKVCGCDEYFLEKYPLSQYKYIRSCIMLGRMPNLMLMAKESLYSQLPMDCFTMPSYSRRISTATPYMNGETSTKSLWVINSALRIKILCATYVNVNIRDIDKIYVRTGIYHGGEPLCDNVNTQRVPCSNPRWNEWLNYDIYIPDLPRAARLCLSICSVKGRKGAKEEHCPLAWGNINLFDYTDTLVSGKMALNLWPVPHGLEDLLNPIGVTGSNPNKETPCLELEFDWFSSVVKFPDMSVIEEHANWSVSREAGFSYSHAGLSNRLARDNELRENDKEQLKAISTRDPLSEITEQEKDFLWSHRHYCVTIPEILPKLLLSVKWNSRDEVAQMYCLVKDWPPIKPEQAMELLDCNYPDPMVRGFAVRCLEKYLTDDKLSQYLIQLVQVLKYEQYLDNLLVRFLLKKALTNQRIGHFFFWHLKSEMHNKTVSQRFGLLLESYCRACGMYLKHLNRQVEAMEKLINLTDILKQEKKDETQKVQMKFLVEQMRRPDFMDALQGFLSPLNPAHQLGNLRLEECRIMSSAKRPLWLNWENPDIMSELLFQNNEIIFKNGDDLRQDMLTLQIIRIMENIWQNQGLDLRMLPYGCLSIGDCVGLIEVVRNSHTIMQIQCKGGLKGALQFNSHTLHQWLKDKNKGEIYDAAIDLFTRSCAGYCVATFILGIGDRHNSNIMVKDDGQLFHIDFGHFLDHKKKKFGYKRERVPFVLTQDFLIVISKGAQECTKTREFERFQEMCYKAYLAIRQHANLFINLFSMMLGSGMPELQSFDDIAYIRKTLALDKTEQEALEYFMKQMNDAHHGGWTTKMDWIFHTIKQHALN
Chain of PI3Kalpha (P27986 whole entry partner, species assumed): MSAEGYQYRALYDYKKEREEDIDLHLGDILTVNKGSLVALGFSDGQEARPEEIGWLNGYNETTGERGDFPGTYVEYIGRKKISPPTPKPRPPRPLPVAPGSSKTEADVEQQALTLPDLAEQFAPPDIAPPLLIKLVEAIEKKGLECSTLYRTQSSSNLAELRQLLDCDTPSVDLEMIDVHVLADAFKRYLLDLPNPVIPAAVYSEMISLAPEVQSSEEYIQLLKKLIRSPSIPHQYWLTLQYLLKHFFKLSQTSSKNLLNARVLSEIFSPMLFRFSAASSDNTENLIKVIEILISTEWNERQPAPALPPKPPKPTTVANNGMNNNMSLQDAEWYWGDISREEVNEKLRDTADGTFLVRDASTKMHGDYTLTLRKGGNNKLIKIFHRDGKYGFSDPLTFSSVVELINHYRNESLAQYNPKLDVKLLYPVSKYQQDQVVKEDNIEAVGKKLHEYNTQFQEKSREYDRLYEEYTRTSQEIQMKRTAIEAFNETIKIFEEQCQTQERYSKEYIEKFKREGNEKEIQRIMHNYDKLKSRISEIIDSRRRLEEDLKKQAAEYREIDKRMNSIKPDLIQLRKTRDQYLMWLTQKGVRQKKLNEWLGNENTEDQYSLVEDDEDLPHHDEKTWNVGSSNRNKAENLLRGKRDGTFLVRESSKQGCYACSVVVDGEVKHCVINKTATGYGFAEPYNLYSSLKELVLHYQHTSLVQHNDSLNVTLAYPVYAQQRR
Experimental: Inhibition of PI3Kalpha-Induced PIP-2 Phosphorylation
Method Type: Filter-Binding-Assay
Aliquoted in desired amounts and stored at −80° C. Final assay concentration 25 ng/well.

BT474 = BT474 cell assay (EC50); assay type: cell-based; conditions: Homo sapiens, BT-474; BT474 cells
[1] = test system: PC3 (human prostate carcinoma cell line) cells; assay: PC3 proliferation test; assay type: cell-based; conditions: PC-3, 72 h, 3 days incubation, DNA dye fluorescence

Chain of mTOR (P42345 1360-2549): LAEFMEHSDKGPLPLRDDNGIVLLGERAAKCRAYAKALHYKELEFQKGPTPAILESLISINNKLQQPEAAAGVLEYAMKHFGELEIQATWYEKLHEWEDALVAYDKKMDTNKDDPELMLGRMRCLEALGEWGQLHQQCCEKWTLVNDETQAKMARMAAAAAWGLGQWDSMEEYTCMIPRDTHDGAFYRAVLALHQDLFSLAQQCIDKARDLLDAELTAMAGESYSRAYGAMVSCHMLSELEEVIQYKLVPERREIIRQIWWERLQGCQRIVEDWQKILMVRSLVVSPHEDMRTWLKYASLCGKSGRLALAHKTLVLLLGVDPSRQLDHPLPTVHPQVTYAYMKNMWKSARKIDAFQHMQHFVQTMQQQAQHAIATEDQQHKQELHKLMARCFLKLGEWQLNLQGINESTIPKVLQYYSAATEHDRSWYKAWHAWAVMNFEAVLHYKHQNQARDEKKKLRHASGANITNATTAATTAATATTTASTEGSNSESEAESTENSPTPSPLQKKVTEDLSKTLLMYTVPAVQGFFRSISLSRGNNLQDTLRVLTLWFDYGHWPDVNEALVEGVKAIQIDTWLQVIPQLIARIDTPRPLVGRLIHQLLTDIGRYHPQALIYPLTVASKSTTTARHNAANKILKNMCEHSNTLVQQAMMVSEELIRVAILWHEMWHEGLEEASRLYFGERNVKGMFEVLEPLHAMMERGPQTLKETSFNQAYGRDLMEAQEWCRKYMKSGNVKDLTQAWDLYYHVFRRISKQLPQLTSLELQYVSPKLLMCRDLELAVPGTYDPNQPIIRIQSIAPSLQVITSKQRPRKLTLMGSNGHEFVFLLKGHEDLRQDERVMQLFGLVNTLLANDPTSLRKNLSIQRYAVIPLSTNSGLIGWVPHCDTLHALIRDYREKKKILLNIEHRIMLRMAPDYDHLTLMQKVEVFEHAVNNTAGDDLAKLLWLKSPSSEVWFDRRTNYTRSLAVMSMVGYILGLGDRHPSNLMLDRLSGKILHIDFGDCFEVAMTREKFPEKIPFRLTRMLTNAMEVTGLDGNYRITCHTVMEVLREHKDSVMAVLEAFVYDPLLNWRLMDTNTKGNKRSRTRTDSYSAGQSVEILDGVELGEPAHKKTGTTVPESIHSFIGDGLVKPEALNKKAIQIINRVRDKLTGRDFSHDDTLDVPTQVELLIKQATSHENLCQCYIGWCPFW

Compound | IC50 (mTOR) | IC50 PI3Ka (PI3Kalpha) | EC50 (BT474) | EC50 [1]
CCc1ncnc(N2CCN(C)C(=O)C2)c1C#Cc1ccc(N)nc1 [Example H-13] | 37 nM | 72 nM | 76 nM | 
CCc1ncnc(N2CCN(CCNS(C)(=O)=O)CC2)c1C#Cc1ccc(N)nc1 [Example H-14] | 18 nM | 60 nM | 63 nM | 
CCc1ncnc(N2CCN(C(C)C)CC2)c1C#Cc1ccc(N)nc1 [Example H-6] | 15 nM | 55 nM | 72 nM | 
CCc1ncnc(N2CCN(CC(C)O)CC2)c1C#Cc1ccc(N)nc1 (stereo not drawn) [Example H-20] | 51 nM | 152 nM | 138 nM | 
CCc1ncnc(N2CCN(c3cccnc3)CC2)c1C#Cc1ccc(N)nc1 [Example H-23] | 14 nM | 48 nM | 139 nM | 
CCc1ncnc(N2CCN(c3ccccn3)CC2)c1C#Cc1ccc(N)nc1 [Example H-21] | 33 nM | 42 nM | 68 nM | 
CCc1ncnc(N2CCC3(CC2)COC3)c1C#Cc1ccc(N)nc1 [Example H-7] | 138 nM | 97 nM | 944 nM | 
CCc1ncnc(N2CCN(c3ccccc3)CC2)c1C#Cc1ccc(N)nc1 [Example H-24] | 89 nM | 129 nM | 78 nM | 
CCc1ncnc(N2CCN(c3ncccn3)CC2)c1C#Cc1ccc(N)nc1 [Example H-25] | 14 nM | 48 nM | 15 nM | 
Cc1ncnc(N2CCC(CCO)CC2)c1C#Cc1ccc(N)nc1 [Example B-30] | 9 nM | 14 nM |  | 49 nM
CCc1ncnc(N2CC[S+]([O-])CC2)c1C#Cc1ccc(N)nc1 [Example B-52] | 28 nM | 104 nM |  | 180 nM
CCc1ncnc(N2CCC(CCO)CC2)c1C#Cc1ccc(N)nc1 [Example B-18] | 5 nM | 35 nM |  | 34 nM
CCc1ncnc(N2CCN(S(C)(=O)=O)CC2)c1C#Cc1ccc(N)nc1 [Example B-43] | 16 nM | 88 nM |  | 139 nM
CCc1ncnc(N2CCN(C)CC2)c1C#Cc1ccc(N)nc1 [Example B-56] | 57 nM | 1551 nM |  | 268 nM
Cc1ncnc(N2CCN(C)CC2)c1C#Cc1ccc(N)nc1 [Example B-8] | 56 nM | 547 nM |  | 277 nM
Cc1ccc(C(=O)N2CCN(c3ncnc(C)c3C#Cc3ccc(N)nc3)CC2)o1 [Example G-10] | 60 nM | 25 nM |  | 221 nM
CCc1ncnc(N2CCCC(CO)C2)c1C#Cc1ccc(N)nc1 (stereo not drawn) [Example B-49] | 28 nM | 73 nM |  | 124 nM
Cc1ncnc(N2CCC(CC(=O)N3CCOCC3)CC2)c1C#Cc1ccc(N)nc1 [Example E-6] | 59 nM | 83 nM |  | 358 nM
CCc1ncnc(N2CCC3(CCN(C(C)=O)CC3)CC2)c1C#Cc1ccc(N)nc1 [Example G-11] | 30 nM | 36 nM |  | 55 nM
Cc1ncnc(N2CCCOCC2)c1C#Cc1ccc(N)nc1 [Example B-6] | 72 nM | 246 nM |  | 441 nM
CCc1ncnc(N2CCC(C)(O)CC2)c1C#Cc1ccc(N)nc1 [Example B-47] | 5 nM | 36 nM |  | 46 nM
Cc1ncnc(N2CCN(CC(C)(C)O)CC2)c1C#Cc1ccc(N)nc1 [Example B-79] | 18 nM | 53 nM |  | 238 nM
COC1CCN(c2ncnc(C)c2C#Cc2ccc(N)nc2)CC1 [Example B-38] | 18 nM | 37 nM |  | 122 nM

Compound | IC50 (mTOR) | IC50 PI3Ka (PI3Kalpha) | EC50 (BT474) | EC50 [1]
CCc1ncnc(N2CCC(O)CC2)c1C#Cc1ccc(C)nc1 [Example B-70] | 141 nM | 139 nM |  | 684 nM
Cc1ncnc(N2CCOCC2)c1C#Cc1ccc(N)nc1 [Example B-4] | 38 nM | 37 nM |  | 319 nM
CCc1ncnc(N2CCc3ncncc3C2)c1C#Cc1ccc(N)nc1 [Example H-11] | 27 nM | 50 nM | 93 nM | 
CCc1ncnc(N2CCC(OC)CC2)c1C#Cc1ccc(N)nc1 [Example B-44] | 10 nM | 58 nM |  | 76 nM
CCN(C)C(=O)CC1CCN(c2ncnc(C)c2C#Cc2ccc(N)nc2)CC1 [Example E-7] | 53 nM | 44 nM |  | 266 nM
CCc1ncnc(N2CCC(NC(C)=O)CC2)c1C#Cc1ccc(N)nc1 [Example B-21] | 19 nM | 83 nM |  | 162 nM
CCc1ncnc(N2CCN(C(=O)NC)CC2)c1C#Cc1ccc(N)nc1 [Example G-1] | 84 nM | 33 nM |  | 212 nM
CCc1ncnc(N2CCC3(CCNC3=O)CC2)c1C#Cc1ccc(N)nc1 [Example B-85] | 30 nM | 95 nM |  | 153 nM
CCc1ncnc(N2CCC(OC)CC2)c1C#Cc1ccc(C)nc1 [Example B-68] | 122 nM | 183 nM |  | 589 nM
Cc1ncnc(N2CCC(CNC(=O)C3CCCCC3)CC2)c1C#Cc1ccc(N)nc1 [Example F-6] | 78 nM | 51 nM |  | 277 nM
Cc1ncnc(N2CCN(C(=O)c3ccno3)CC2)c1C#Cc1ccc(N)nc1 [Example G-9] | 55 nM | 39 nM |  | 310 nM
CCc1ncnc(N2CCN(CCOC)CC2)c1C#Cc1ccc(N)nc1 [Example B-55] | 26 nM | 718 nM |  | 191 nM
CCc1ncnc(N2CCC3(CCN(C(=O)NC)CC3)CC2)c1C#Cc1ccc(N)nc1 [Example G-13] | 35 nM | 50 nM |  | 53 nM
COCCN1CCN(c2ncnc(C)c2C#Cc2ccc(N)nc2)CC1 [Example B-2] | 32 nM | 145 nM |  | 301 nM
CCc1ncnc(N2CCC(CCO)CC2)c1C#Cc1ccc(C)nc1 [Example B-29] | 67 nM | 88 nM |  | 234 nM
CCc1ncnc(N2CCC(OC)CC2)c1C#Cc1ccc(NC)nc1 [Example B-86] | 9 nM | 94 nM |  | 115 nM
CCc1ncnc(N2CCN(C(=O)c3ccco3)CC2)c1C#Cc1ccc(N)nc1 [Example G-7] | 60 nM | 37 nM |  | 197 nM
CCc1ncnc(N2CCC3(CCN(C(=O)COC)CC3)CC2)c1C#Cc1ccc(N)nc1 [Example G-12] | 32 nM | 37 nM |  | 41 nM
CCc1ncnc(N2CCCC(NC(C)=O)C2)c1C#Cc1ccc(N)nc1 (stereo not drawn) [Example B-20] | 16 nM | 167 nM |  | 158 nM
CCc1ncnc(N2CCC(O)CC2)c1C#Cc1ccc(N)nc1 [Example B-48] | 14 nM | 99 nM |  | 141 nM
CCc1ncnc(N2CCN(c3ccncc3)CC2)c1C#Cc1ccc(N)nc1 [Example H-22] | 49 nM | 229 nM | 194 nM | 
Cc1ncnc(N2CCC(O)(Cc3ccccc3)CC2)c1C#Cc1ccc(N)nc1 [Example B-28] | 50 nM | 70 nM |  | 195 nM
CCc1ncnc(N2CCC(O)(C(C)C)CC2)c1C#Cc1ccc(N)nc1 [Example B-63] | 0.61 nM | 15 nM |  | 8 nM
